In patent publication US11071731B2, “Allosteric modulators of the mu opioid receptor” (Chiromics, LLC, priority 2017, dated 2021):

Legend:
mu opioid receptor (MOR) [1] = biological target: T1, mu opioid receptor (MOR) (Homo sapiens, UniProt P35372); assay: PathHunter β-arrestin recruitment assay, PAM mode with EC20 endomorphin-1; type: cell-based
How it was run: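 Enzyme fragment complementation read-out: β-gal ED fragment fused to receptor, EA fused to β-arrestin, recruitment restoring β-gal activity detected by chemiluminescence. EC50 and percent maximal response derived for each compound.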

mu opioid receptor (MOR) [2] = biological target: T1, mu opioid receptor (MOR); assay: Hit Hunter cAMP signaling assay (adenylyl cyclase inhibition), PAM mode with EC20 endomorphin-1; type: cell-based
[3] = maximal response for β-arrestin recruitment
[4] = β-arrestin recruitment, read-out: β-arr. EC50
[5] = cAMP EC50, adenylyl cyclase inhibition
[6] = maximal response for adenylyl cyclase inhibition
[7] = maximal response, β-arrestin recruitment
[8] = maximal response, adenylyl cyclase inhibition
[9] = adenylyl cyclase inhibition, read-out: cAMP EC50

T1 sequence (P35372 whole entry, the tested form may be a part): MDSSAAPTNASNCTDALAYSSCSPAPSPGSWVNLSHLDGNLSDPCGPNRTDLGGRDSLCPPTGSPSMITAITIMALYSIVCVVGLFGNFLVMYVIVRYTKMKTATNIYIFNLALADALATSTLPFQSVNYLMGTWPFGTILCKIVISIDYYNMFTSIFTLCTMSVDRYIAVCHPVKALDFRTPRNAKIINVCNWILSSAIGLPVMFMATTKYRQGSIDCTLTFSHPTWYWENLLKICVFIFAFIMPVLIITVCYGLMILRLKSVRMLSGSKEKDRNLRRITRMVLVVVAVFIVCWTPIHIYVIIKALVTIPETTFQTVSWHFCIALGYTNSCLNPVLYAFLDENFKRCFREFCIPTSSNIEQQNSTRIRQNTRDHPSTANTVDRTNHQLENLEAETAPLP

Row | Compound | β-arr Max. Resp. (mu opioid receptor (MOR) [1]; [3]) | EC50 (mu opioid receptor (MOR) [1]; [4]) [µM] | EC50 (mu opioid receptor (MOR) [2]; [5]) [µM] | cAMP Max. Resp. (mu opioid receptor (MOR) [2]; [6]) | β-arr Max. Resp. (mu opioid receptor (MOR) [1]; [7]) | cAMP Max. Resp. (mu opioid receptor (MOR) [2]; [8]) | β-arrestin Max Response (mu opioid receptor (MOR) [1]; β-arrestin recruitment, activity switching by MOR PAMs) | EC50 (mu opioid receptor (MOR) [1]; β-arrestin recruitment, activity switching by MOR PAMs, read-out: β-arrestin EC50) [µM] | cAMP Max Resp. (mu opioid receptor (MOR) [2]; adenylyl cyclase inhibition, activity switching by MOR PAMs) | EC50 (mu opioid receptor (MOR) [2]; adenylyl cyclase inhibition, activity switching by MOR PAMs, read-out: cAMP EC50) [µM] | EC50 (mu opioid receptor (MOR) [2]; [9]) [µM]
1 | Fc1ccc(C2CCCCN2c2nc(Cl)ncc2F)cc1Br (stereo not shown) [compound 124] | F (F represents a maximal response of > 60%) | < 0.7 | < 0.7 | E (E represents a maximal response of 40-60%) |  |  |  |  |  |  | 
2 | Fc1cnc(Cl)nc1N1CCC(F)(F)CC1c1cccc(C(F)(F)F)c1 (stereo not shown) [compound 199] | F (F represents a maximal response of > 60%) | < 0.7 | 0.7 to 2.1 | E (E represents a maximal response of 40-60%) |  |  |  |  |  |  | 
3 | Fc1cnc(Cl)nc1N1CCCCC1c1ccnc(C(F)(F)F)c1 (stereo not shown) [compound 410] | D (D represents a maximal response of < 40%) | < 0.7 | < 0.7 | D (D represents a maximal response of < 40%) |  |  |  |  |  |  | 
4 | Fc1cccc(C2CCCCN2c2cc(Cl)ncc2F)n1 (stereo not shown) [compound 262] | E (E represents a maximal response of 40-60%) | > 2.1 | > 2.1 | D (D represents a maximal response of < 40%) |  |  |  |  |  |  | 
5 | COc1cccc(N2CCCCC2c2ccc(F)c(Cl)c2)c1 (stereo not shown) [compound 465] |  | > 2.1 | > 2.1 |  | E (E represents a maximal response of 40-60%) | D (D represents a maximal response of < 40%) |  |  |  |  | 
6 | Oc1ncc(F)c(N2CCCCC2c2cccc(C(F)(F)F)c2)n1 (stereo not shown) [compound 350] | D (D represents a maximal response of < 40%) | < 0.7 |  | D (D represents a maximal response of < 40%) |  |  |  |  |  |  | 
7 | Fc1cnc(Cl)nc1N1CCCCC1c1ccc(C(F)(F)F)nc1 (stereo not shown) [compound 413] | D (D represents a maximal response of < 40%) | < 0.7 | < 0.7 | D (D represents a maximal response of < 40%) |  |  |  |  |  |  | 
8 | O=S(=O)(c1ccc(Cl)cc1)N1CCCCC1c1ccnc(C(F)(F)F)c1 (racemic) [compound 57] | F (F represents a maximal response of > 60%) | > 2.1 |  | E (E represents a maximal response of 40-60%) |  |  | F (F represents a maximal response of >60%) | > 2.1 | E (E represents a maximal response of 40-60%) | > 2.1 | > 2.1
9 | [N-]=[N+]=Nc1ccc(N2CCCCC2c2ccc(F)c(Cl)c2)cc1 (stereo not shown) [compound 462] |  | > 2.1 | > 2.1 |  | E (E represents a maximal response of 40-60%) | D (D represents a maximal response of < 40%) |  |  |  |  | 
10 | O=S(=O)(c1ccc(Cl)cc1)N1CCCCC1c1ccc(F)cn1 (racemic) [compound 54] | F (F represents a maximal response of > 60%) | > 2.1 |  | E (E represents a maximal response of 40-60%) |  |  |  |  |  |  | > 2.1
11 | CC1CCN(S(=O)(=O)c2ccc(Cl)cc2)C1c1ccc(Br)c(F)c1 (mixture of isomers) [Compound 92] | F (F represents a maximal response of > 60%) | 0.7 to 2.1 |  | D (D represents a maximal response of < 40%) |  |  |  |  |  |  | > 2.1
12 | O=S(=O)(c1ccc(Cl)cc1F)N1CCCC(F)C1c1ccc(F)c(Br)c1 (stereo not shown) [Compound 37] |  | > 2.1 |  |  |  |  |  |  |  |  | > 2.1
13 | FC(F)(F)c1cccc(C2CCCCN2c2cccc(Cl)c2)n1 (stereo not shown) [compound 459] |  | > 2.1 |  |  | F (F represents a maximal response of > 60%) | D (D represents a maximal response of < 40%) |  |  |  |  | > 2.1
14 | COc1cc(C2CCCCN2S(=O)(=O)c2ccc(Cl)cc2)ccc1Br (stereo not shown) [compound 42] | E (E represents a maximal response of 40-60%) | 0.7 to 2.1 |  | D (D represents a maximal response of < 40%) |  |  |  |  |  |  | > 2.1
15 | Fc1cnc(Cl)nc1N1CCCCC1c1cccc(Cl)c1 (stereo not shown) [compound 285] | F (F represents a maximal response of > 60%) | 0.7 to 2.1 | > 2.1 | E (E represents a maximal response of 40-60%) |  |  |  |  |  |  | 
16 | Cc1cccc(C2CCCCN2c2nc(Cl)ncc2F)n1 (stereo not shown) [compound 414] | D (D represents a maximal response of < 40%) | < 0.7 | < 0.7 | D (D represents a maximal response of < 40%) |  |  |  |  |  |  | 
17 | COc1ccc(C2CCCCN2c2nc(Cl)c(C#N)cc2F)cc1Br (stereo not shown) [compound 449] |  | > 2.1 | > 2.1 |  | F (F represents a maximal response of > 60%) | D (D represents a maximal response of < 40%) |  |  |  |  | 
18 | CC1CCN(S(=O)(=O)c2ccc(Cl)cc2)C1c1ccc(Cl)c(Br)c1 (mixture of isomers) [Compound 99] | E (E represents a maximal response of 40-60%) | < 0.7 |  | D (D represents a maximal response of < 40%) |  |  |  |  |  |  | < 0.7

Row | Compound | β-arr Max. Resp. (mu opioid receptor (MOR) [1]; [3]) | EC50 (mu opioid receptor (MOR) [1]; [4]) [µM] | EC50 (mu opioid receptor (MOR) [2]; [5]) [µM] | cAMP Max. Resp. (mu opioid receptor (MOR) [2]; [6]) | β-arr Max. Resp. (mu opioid receptor (MOR) [1]; [7]) | cAMP Max. Resp. (mu opioid receptor (MOR) [2]; [8]) | β-arrestin Max Response (mu opioid receptor (MOR) [1]; β-arrestin recruitment, activity switching by MOR PAMs) | EC50 (mu opioid receptor (MOR) [1]; β-arrestin recruitment, activity switching by MOR PAMs, read-out: β-arrestin EC50) [µM] | cAMP Max Resp. (mu opioid receptor (MOR) [2]; adenylyl cyclase inhibition, activity switching by MOR PAMs) | EC50 (mu opioid receptor (MOR) [2]; adenylyl cyclase inhibition, activity switching by MOR PAMs, read-out: cAMP EC50) [µM] | EC50 (mu opioid receptor (MOR) [2]; [9]) [µM]
19 | Fc1cnc(Cl)nc1N1CCCCC1c1c(C(F)(F)F)ccc(F)c1Br (stereo not shown) [compound 354] | D (D represents a maximal response of < 40%) | < 0.7 | < 0.7 | D (D represents a maximal response of < 40%) |  |  |  |  |  |  | 
20 | Cc1coc(C2CCCCN2c2nc(Cl)ncc2F)n1 (stereo not shown) [compound 366] | D (D represents a maximal response of < 40%) | < 0.7 | < 0.7 | D (D represents a maximal response of < 40%) |  |  |  |  |  |  | 
21 | [2H]C1(c2ccc(F)c(Br)c2)C(F)CCCN1c1nc(Cl)ncc1F (stereo not shown) [compound 214] | F (F represents a maximal response of > 60%) |  |  | E (E represents a maximal response of 40-60%) |  |  |  |  |  |  | 
22 | Fc1cnc(Cl)nc1N1CCCCC1c1ccc(Cl)c(Br)c1 (single isomer, unassigned) [compound 125] | F (F represents a maximal response of > 60%) | < 0.7 | < 0.7 | F (F represents a maximal response of > 60%) |  |  |  |  |  |  | 
23 | COc1ccc(C2CCCCN2S(=O)(=O)c2ccc(Cl)cc2)cc1Br (single isomer, unassigned) [compound 5] | D (D represents a maximal response of < 40%) | > 2.1 | > 2.1 | D (D represents a maximal response of < 40%) |  |  |  |  |  |  | 
24 | Fc1ccc(Cl)nc1N1CCCCC1c1cncc(Cl)n1 (stereo not shown) [compound 395] | D (D represents a maximal response of < 40%) | < 0.7 |  | D (D represents a maximal response of < 40%) |  |  |  |  |  |  | < 0.7
25 | COc1cc(C2CCCCN2c2nc(Cl)ncc2F)ccc1Br (stereo not shown) [compound 288] | F (F represents a maximal response of > 60%) | > 2.1 | > 2.1 | E (E represents a maximal response of 40-60%) |  |  |  |  |  |  | 
26 | Fc1ccc(C2CC(F)CN2c2nc(Cl)ncc2F)cc1Cl (stereo not shown) [compound 464] |  | > 2.1 |  |  | E (E represents a maximal response of 40-60%) | E (E represents a maximal response of 40-60%) |  |  |  |  | > 2.1
27 | COc1ccc(C2CCCCN2S(=O)(=O)C2CC2)cc1Br (stereo not shown) [compound 15] | E (E represents a maximal response of 40-60%) | > 2.1 | > 2.1 | E (E represents a maximal response of 40-60%) |  |  |  |  |  |  | 
28 | [2H]C1(c2cccc(C(F)(F)F)c2)C(F)CCCN1c1nc(Cl)ncc1F (single isomer, unassigned) [compound 208] | F (F represents a maximal response of > 60%) | > 2.1 |  | F (F represents a maximal response of > 60%) |  |  |  |  |  |  | 
29 | COc1ccc(C2CCCCN2S(=O)(=O)c2ccc(Cl)cc2)cc1Cl (racemic) [compound 51] | F (F represents a maximal response of > 60%) | > 2.1 |  | F (F represents a maximal response of > 60%) |  |  |  |  |  |  | 0.7 to 2.1
30 | Fc1cnc(Cl)nc1N1CCCCC1c1nc2ccccc2s1 (stereo not shown) [compound 340] | D (D represents a maximal response of < 40%) | < 0.7 | < 0.7 | D (D represents a maximal response of < 40%) |  |  |  |  |  |  | 
31 | Fc1ccc(C2CCCCN2Cc2cc(Cl)ccc2F)cc1 (stereo not shown) [compound 163] | F (F represents a maximal response of > 60%) | 0.7 to 2.1 | < 0.7 | E (E represents a maximal response of 40-60%) |  |  |  |  |  |  | 
32 | Fc1cnc(Cl)nc1N1CCCCC1c1cccnc1 (stereo not shown) [compound 373] | D (D represents a maximal response of < 40%) | < 0.7 | < 0.7 | D (D represents a maximal response of < 40%) |  |  |  |  |  |  | 
33 | O=S1(=O)CCN(c2nc(Cl)ncc2F)C(c2cc(F)cc(C(F)(F)F)c2)C1 (racemic) [Compound 303] | D (D represents a maximal response of < 40%) | > 2.1 |  | E (E represents a maximal response of 40-60%) |  |  |  |  |  |  | > 2.1
34 | Fc1cnc(Cl)nc1N1CCCCC1c1ccc(Cl)c(Cl)c1 (stereo not shown) [compound 331] | D (D represents a maximal response of < 40%) | < 0.7 | < 0.7 | D (D represents a maximal response of < 40%) |  |  |  |  |  |  | 
35 | Fc1cc(C2CCCCN2c2nc(Cl)ncc2F)cc(C(F)(F)F)c1 (stereo not shown) [compound 122] | F (F represents a maximal response of > 60%) | < 0.7 | < 0.7 | F (F represents a maximal response of > 60%) |  |  |  |  |  |  | 
36 | Fc1cnc(N2CCOCC2)nc1N1CCCCC1c1cccc(C(F)(F)F)c1 (stereo not shown) [compound 255] | D (D represents a maximal response of < 40%) | > 2.1 | > 2.1 | F (F represents a maximal response of > 60%) |  |  |  |  |  |  | 
